Reference: patent US8247211B2, “Glycopeptide antibiotics” (American Cyanamid Company, priority 2001, dated 2012)
Converted amounts (≈) assume the structure as drawn.

Key:
Enterococcus sp. = experiment: In vitro antibacterial evaluation: minimum inhibitory concentration (MIC), broth dilution method; format: cell-based; details: broth dilution, 5×10^5 CFU/mL, 18 hours at 35° C.
Procedure, shortened: (§1)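 Values are minimum inhibitory concentrations, meaning the smallest antibiotic concentration that stops growth of the organism. They come from broth dilution in Muller-Hinton II […] per NCCLS guidance (M7-A2), using 5×10^5 CFU/mL and concentrations from 64 to 0.06 μg/mL.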

Escherichia coli = experiment: as above; format: cell-based; details: 5×10^5 CFU/mL, 18 hours at 35° C.
Procedure, shortened: as §1

Staphylococcus sp. = experiment: as above; format: cell-based; details: for MIC Staphylococcus aureus (ATCC 29213): strain ATCC 29213; for MIC Staphylococcus aureus (GC 1131): strain GC 1131; for MIC Staphylococcus aureus (GC 3051): strain GC 3051; for MIC Staphylococcus aureus (GC 3053): strain GC 3053; for MIC Staphylococcus aureus (GC 4541): strain GC 4541; for MIC Staphylococcus aureus (GC 4542): strain GC 4542; for MIC Staphylococcus aureus-SMITH (GC 4543): strain GC 4543; for MIC Staphylococcus aureus (GC 4544): strain GC 4544; for MIC Staphylococcus aureus (GC 4545): strain GC 4545; for MIC Staphylococcus haemolyticus (GC 4546): strain GC 4546; for MIC Coagulase Negative Staphylococcus (GC 4547): strain GC 4547; for MIC Coagulase Negative Staphylococcus (GC 4548): strain GC 4548; for MIC Coagulase Negative Staphylococcus (GC 4549): strain GC 4549; for MIC Coagulase Negative Staphylococcus (GC 4551): strain GC 4551; for MIC Coagulase Negative Staphylococcus (GC 6257): strain GC 6257
Procedure, shortened: as §1

Streptococcus sp. = experiment: as above; format: cell-based; details: broth dilution, 5×10^5 CFU/mL, 18 hours at 35° C.
Procedure, shortened: as §1

[1] = test system: Staphylococcus aureus-SMITH (GC 4543); experiment: Acute lethal infection in mice (ED50); format: in vivo; details: female CD-1 mice, intraperitoneal challenge, intravenous dose 30 min. after infection, 7 day survival ratios
Procedure, shortened: (§2)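 Groups of five female CD-1 mice per dose got intravenous antibiotic in saline or 5% dextrose half an hour after intraperitoneal infection sufficient to kill controls within 24-48 hr. Seven-day survival data from three experiments were combined to derive ED50.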

[2] = test system: Enterococcus faecalis (GC 6189), vancomycin resistant strain; experiment: Acute lethal infection in mice (ED50); format: in vivo; details: female CD-1 mice, intraperitoneal challenge, intravenous dose 30 min. after infection, 7 day survival ratios
Procedure, shortened: as §2

[3] = broth dilution, 18 hours at 35° C.

In the case of `CC(c1ccccc1)C1NC(=O)CNC(=O)C(CO)NC(=O)C(C(O)C2CNC(=N)N2C2OC(CO)C(O)C(O)C2O)NC(=O)C(C(O)C2CNC(=N)N2)NC(=O)C(Cc2ccc(OC3OC(CO)C(OC4OC5COC(C6CC=CCC6)OC5C(O)C4O)C(O)C3O)cc2)NC1=O` (stereo not drawn) [Example 115, Cyclo[glycyl-β-methylphenylalanyl-O-[4-O-[4,6-O-(cyclohex-3-en-1-ylmethylene)hexopyranosyl]hexopyranosyl]tyrosyl-3-(2-iminoimidazolidin-4-yl)seryl-3-(3-hexopyranosyl-2-iminoimidazolidin-4-yl)serylseryl]], the “MIC Enterococccus avium (GC 4558)” value (Enterococcus sp.) is reported as 2 µg/mL (≈ 1.44 µM), the “MIC Enterococccus faecalis (ATCC 29212)” value (Enterococcus sp.) is reported as 2 µg/mL (≈ 1.44 µM) and the “MIC Enterococccus faecalis (GC 2691)” value (Enterococcus sp.) is reported as 2 µg/mL (≈ 1.44 µM). The “MIC Enterococccus faecalis (GC 3059)” value (Enterococcus sp.) was 2 µg/mL (≈ 1.44 µM), the “MIC Enterococccus faecalis (GC 4552)” value (Enterococcus sp.) was 2 µg/mL (≈ 1.44 µM) and the “MIC Enterococccus faecalis (GC 4553)” value (Enterococcus sp.) was 4 µg/mL (≈ 2.88 µM). For the same compound, the “MIC Enterococccus faecalis (GC 4554)” value (Enterococcus sp.) was 2 µg/mL (≈ 1.44 µM), the “MIC Enterococccus faecalis (GC 6189)” value (Enterococcus sp.) was 2 µg/mL (≈ 1.44 µM) and the “MIC Enterococccus faecium (GC 2243)” value (Enterococcus sp.) was 2 µg/mL (≈ 1.44 µM). The “MIC Enterococccus faecium (GC 4556)” value (Enterococcus sp.) was 2 µg/mL (≈ 1.44 µM), the “MIC Enterococccus faecium (GC 4557)” value (Enterococcus sp.) was 2 µg/mL (≈ 1.44 µM) and the “MIC Enterococcus faecalis (GC 2242)” value (Enterococcus sp.) was 2 µg/mL (≈ 1.44 µM). For the same compound, the “MIC Escherichia coli (ATCC 25922)” value (Escherichia coli) was 32 µg/mL (≈ 23.1 µM), the “MIC Escherichia coli (GC 4559)” value (Escherichia coli) was 64 µg/mL (≈ 46.1 µM) and the “MIC Escherichia coli (GC 4560)” value (Escherichia coli) was 1 µg/mL (≈ 0.721 µM). For the same compound, the “MIC Staphylococcus aureus (ATCC 29213)” value (Staphylococcus sp.) was 1 µg/mL (≈ 0.721 µM), the “MIC Staphylococcus aureus (ATCC 29213)” value (Staphylococcus sp.; [3]) was 1 µg/mL (≈ 0.721 µM) and the “MIC Staphylococcus aureus (GC 1131)” value (Staphylococcus sp.) was 1 µg/mL (≈ 0.721 µM). For the same compound, the “MIC Staphylococcus aureus (GC 1131)” value (Staphylococcus sp.; [3]) was 1 µg/mL (≈ 0.721 µM), the “MIC Staphylococcus aureus (GC 3051)” value (Staphylococcus sp.) was 1 µg/mL (≈ 0.721 µM) and the “MIC Staphylococcus aureus (GC 3051)” value (Staphylococcus sp.; [3]) was 1 µg/mL (≈ 0.721 µM). For the same compound, the “MIC Staphylococcus aureus (GC 3053)” value (Staphylococcus sp.) was 1 µg/mL (≈ 0.721 µM), the “MIC Staphylococcus aureus (GC 3053)” value (Staphylococcus sp.; [3]) was 1 µg/mL (≈ 0.721 µM) and the “MIC Staphylococcus aureus (GC 4541)” value (Staphylococcus sp.) was 1 µg/mL (≈ 0.721 µM). The “MIC Staphylococcus aureus (GC 4541)” value (Staphylococcus sp.; [3]) was 1 µg/mL (≈ 0.721 µM), the “MIC Staphylococcus aureus (GC 4542)” value (Staphylococcus sp.) was 0.5 µg/mL (≈ 0.36 µM) and the “MIC Staphylococcus aureus (GC 4542)” value (Staphylococcus sp.; [3]) was 0.5 µg/mL (≈ 0.36 µM). The “MIC Staphylococcus aureus-SMITH (GC 4543)” value (Staphylococcus sp.; 18 hours at 35° C.) was 1 µg/mL (≈ 0.721 µM), the “MIC Staphylococcus aureus-SMITH (GC 4543)” value (Staphylococcus sp.; [3]) was 1 µg/mL (≈ 0.721 µM) and the “MIC Staphylococcus aureus (GC 4544)” value (Staphylococcus sp.) was 1 µg/mL (≈ 0.721 µM). For the same compound, the “MIC Staphylococcus aureus (GC 4544)” value (Staphylococcus sp.; [3]) was 1 µg/mL (≈ 0.721 µM), the “MIC Staphylococcus aureus (GC 4545)” value (Staphylococcus sp.) was 0.5 µg/mL (≈ 0.36 µM) and the “MIC Staphylococcus aureus (GC 4545)” value (Staphylococcus sp.; [3]) was 0.5 µg/mL (≈ 0.36 µM). For the same compound, the “MIC Staphylococcus haemolyticus (GC 4546)” value (Staphylococcus sp.) was 0.5 µg/mL (≈ 0.36 µM), the “MIC Staphylococcus haemolyticus (GC 4546)” value (Staphylococcus sp.; [3]) was 0.5 µg/mL (≈ 0.36 µM) and the “MIC Coagulase Negative Staphylococcus (GC 4547)” value (Staphylococcus sp.) was 1 µg/mL (≈ 0.721 µM). The “MIC Coagulase Negative Staphylococcus (GC 4547)” value (Staphylococcus sp.; [3]) was 1 µg/mL (≈ 0.721 µM), the “MIC Coagulase Negative Staphylococcus (GC 4548)” value (Staphylococcus sp.) was 0.5 µg/mL (≈ 0.36 µM) and the “MIC Coagulase Negative Staphylococcus (GC 4548)” value (Staphylococcus sp.; [3]) was 0.5 µg/mL (≈ 0.36 µM). For the same compound, the “MIC Coagulase Negative Staphylococcus (GC 4549)” value (Staphylococcus sp.) was 1 µg/mL (≈ 0.721 µM), the “MIC Coagulase Negative Staphylococcus (GC 4549)” value (Staphylococcus sp.; [3]) was 1 µg/mL (≈ 0.721 µM) and the “MIC Coagulase Negative Staphylococcus (GC 4551)” value (Staphylococcus sp.) was 1 µg/mL (≈ 0.721 µM). For the same compound, the “MIC Coagulase Negative Staphylococcus (GC 4551)” value (Staphylococcus sp.; [3]) was 1 µg/mL (≈ 0.721 µM), the “MIC Coagulase Negative Staphylococcus (GC 6257)” value (Staphylococcus sp.) was 0.5 µg/mL (≈ 0.36 µM) and the “MIC Coagulase Negative Staphylococcus (GC 6257)” value (Staphylococcus sp.; [3]) was 0.5 µg/mL (≈ 0.36 µM). For the same compound, the “MIC Streptococcus agalactiae (GC 4564)” value (Streptococcus sp.) was 0.25 µg/mL (≈ 0.18 µM), the “MIC Streptococcus pneumoniae (GC 1894)” value (Streptococcus sp.) was under 0.06 µg/mL and the “MIC Streptococcus pneumoniae (GC 4565)” value (Streptococcus sp.) was 0.12 µg/mL (≈ 0.0865 µM). The “MIC Streptococcus pneumonine (ATCC 6301)” value (Streptococcus sp.) was under 0.06 µg/mL, the “MIC Streptococcus pyogenes (GC 4563)” value (Streptococcus sp.) was 0.25 µg/mL (≈ 0.18 µM) and the median effective dose (ED50), Staphylococcus aureus-SMITH (GC 4543) [1] was 0.23 mg/kg. For the same compound, the median effective dose (ED50), Enterococcus faecalis (GC 6189) [2] was 0.36 mg/kg.
